Experimental data as given in patent publication US20160313301A1, “METHOD FOR PREDICTING ANTITUMOR EFFICACY OF HSP90 INHIBITOR IN CANCER TREATMENT” (NIPPON KAYAKU KABUSHIKI KAISHA, priority 2013, published 2016).

Tested on: client proteins and HSP90-related proteins in TOV-21G tumor
Experiment: Immunoblot: change in expression amount of proteins in TOV-21G tumor after administration
Type: in vivo, human
Settings: 40 mg/kg tail vein
Description: Thirty micrograms of total protein was subjected to electrophoresis in 8% acrylamide gel. Then, the protein was transferred onto a PVDF membrane at a voltage of 100 V for 60 min at 4 °C. The PVDF membrane on which the protein had been transferred was blocked in TBS-Tween (0.1%) containing 5% milk at normal temperature for 60 min, followed by incubating with each of primary antibodies described below overnight at 4 °C. • Primary antibody (supplier, product number, dilution ratio, exposure time) • EGFR (Santa Cruz, sc-003, 1:500, 1 min) • HER2 (Santa Cruz, sc-284, 1:2000, 5 sec) • HER3 (Santa Cruz, sc-285, 1:400, 1 min) • Met (Santa Cruz, sc-161, 1:500, 5 min) • IGF-1R (Cell Signaling, #3027, 1:500, 15 sec) • Raf-1 (Santa Cruz, sc-133, 1:300, 5 min) • Stat3 (BD Transduction Laboratory, 610189, 1:500, 15 sec) • pAkt (Cell Signaling, #4058S, 1:500, 1 min) • Akt (Cell Signaling, #4691S, 1:2000, 15 sec) • pERK (Santa Cruz, sc-16982-R, 1:500, 1 min) • ERK (Invitrogen, 44-654G, 1:1000, 15 sec) • mTOR (Cell Signaling, #2983S, 1:500, 15 sec) • MEK (Cell Signaling, #9122S, 1:500, 1 min) • HSP90 (Enzo Life Science, SPA-830, 1:500, 15 sec) • HSP70 (Enzo Life Science, SPA-810, 1:2000, 15 sec) • Actin (Santa Cruz, sc-8432/HRP, 1:300, 5 min)
After incubation, the blot membrane was washed with TBS-Tween (0.1%) at normal temperature for 10 min three times to thereby remove excessive primary antibodies. Then, the membrane was incubated with an appropriate secondary antibody (anti-rabbit IgG HRP conjugate or anti-mouse IgG HRP conjugate) at normal temperature for 60 min. The membrane was washed with TBS-Tween (0.1%) at normal temperature for 10 min three times to thereby remove excessive secondary antibodies. Then, the membrane was incubated with ECL Western Blotting Detection Reagents (GE Healthcare) for 2 min, followed by exposing to an X-ray film. Thus, the signal of the intended protein was detected.
Tumors to be transplanted derived from human ovarian cancer cell lines SK-OV-3 and TOV-21G were prepared in the same manner as in Example 1.
Protein extraction liquid was obtained from each tumor as follows. The human ovarian cancer tumors maintained by passage in SCID mice were transplanted subcutaneously to the dorsums of SCID mice with trocars. When the tumor volume of each tumor reached about 300 mm^3, the triazole (A-1) synthesized as the HSP90 inhibitor in Synthetic Example 1 was administered into a tail vein of each of the mice at a dose of 40 mg/kg in the same manner as in Example 1. The tumors were removed before and 4 and 24 hours after administration. At each time point, the tumors were removed from three mice for the SK-OV-3 tumor and two mice for the TOV-21G tumor. Protein extraction liquids were obtained in the same manner as in Example 1. The total protein amount in each of the extraction liquids was quantified in the same manner as in Example 1.
The immunoblot method was used to verify change in expression amounts of the client proteins and the HSP90-related proteins in the SK-OV-3 and TOV-21G tumors to which the triazole compound (A-1) had been administered, in the same manner as in Example 1. The types and dilution ratios of primary antibodies and secondary antibodies used were the same as in Example 1.

Question: How did the “expression amount of total Akt” value turn out when `CC(C)c1cc(-c2n[nH]c(=O)n2-c2ccc(CN3CCN(C)CC3)cc2)c(O)cc1O` [A-1, 5-(2,4-dihydroxy-5-isopropyl-phenyl)-4-[4-(4-methyl-piperazin-1-ylmethyl)-phenyl]-2,4-dihydro-[1,2,4]triazol-3-one] was run?
Answer: Its value is “not changed”.

Question: And the “expression amount of total ERK” value?
Answer: Its value is “not changed”.

Question: And the “expression level of EGFR” value?
Answer: Its value is “decreased”.

Question: What about the “expression level of HER2” value of the same compound?
Answer: Its value is “decreased”.

Question: What about the “expression level of IGF-1R” value of the same compound?
Answer: The value was “decreased”.

Question: What about the “expression level of Met” value of the same compound?
Answer: Its value is “decreased”.

Question: What about the “expression level of mTOR” value of the same compound?
Answer: Its value is “decreased”.

Question: What about the “expression level of pAkt” value of the same compound?
Answer: The value was “decreased”.
